One data set relates to K562 cells. Nature of the data set: Inhibition of CML cell proliferation, K562. It is filed as cell-based. The following applies: Homo sapiens. As for the experimental part: (§1) • A. Inhibition of v-Abl-dependent proliferation. Rat 2 cells infected with Abl-murine leukemia virus were grown and treated as described for the Src cell assay. All measurements were identical except for the cell type that Cell-Titer Glo (Promega) was used to monitor relative cell number. In this case, the reagent was used as recommended by the manufacturer and luminescence was measured on a Wallac Victor plate reader. • B. Inhibition of CML cell proliferation. KU812 and K562 cells were grown in RPMI1640 medium supplemented with 10% fetal calf serum and glutamine with 50 μg/ml gentamicin. Cells were plated at 1000-2000 cells per well on Day 0. On Day 1, compound was added such that the final DMSO concentration was no greater than 0.1%. On Day 4, Cell-Titer Glo was added according to manufacturer specifications and luminescence was determined on a Wallac Victor plate reader.

Data set [1] deals with Rat 2 cells infected with Abl-murine leukemia virus. Nature of the data set: Inhibition of v-Abl-dependent proliferation. It is filed as cell-based. The following applies: Rat2. As for the experimental part:
Ultra-low cluster plates (Corning Costar, Acton, Mass.) are seeded with 10,000 cells per well on day 1. Alternatively, Ultra-low cluster plates (Costar 3474) treated with Sigmacote (Sigma, St. Louis, Mo.), rinsed with 70% ethanol, after drying in the hood, are seeded with 5000 cells.
Alternatively relative cell numbers were determined by the CellTiter-Glo™ (Promega) method. All procedures were identical except that cell number was reduced to 1000 cells/well and CellTiter-Glo reagent was added instead of MTS reagent, with luminescence as the readout.
as §1

The test system of the next data set is K562 xenografts. The experiment in a line: K562 xenografts in nude mice, tumor-free survival. It is filed as in vivo. From the text: Nude mice with K562 xenografts were examined on days 11, 22, 36, and 43. Data is presented as a ratio of animals lacking detectable tumors relative to the number of animals per group. K562 tumors imbedded in Matrigel were staged in nude mice until tumors reached 200-300 mm^3.

For a further data set, the system named is KU812 cells. The experiment in a line: Inhibition of CML cell proliferation, KU812. The following applies: Homo sapiens. It is filed as cell-based. On the procedure: as §1
Data set [2] concerns the target T1, Src (Homo sapiens, UniProt P12931). The experiment in a line: Src kinase assay, ELISA format.
For a further data set, the target named is T2, c-Abl (Homo sapiens, UniProt P00519).
T2 construct: purchased Panvera P3049
T2 sequence (P00519 whole entry): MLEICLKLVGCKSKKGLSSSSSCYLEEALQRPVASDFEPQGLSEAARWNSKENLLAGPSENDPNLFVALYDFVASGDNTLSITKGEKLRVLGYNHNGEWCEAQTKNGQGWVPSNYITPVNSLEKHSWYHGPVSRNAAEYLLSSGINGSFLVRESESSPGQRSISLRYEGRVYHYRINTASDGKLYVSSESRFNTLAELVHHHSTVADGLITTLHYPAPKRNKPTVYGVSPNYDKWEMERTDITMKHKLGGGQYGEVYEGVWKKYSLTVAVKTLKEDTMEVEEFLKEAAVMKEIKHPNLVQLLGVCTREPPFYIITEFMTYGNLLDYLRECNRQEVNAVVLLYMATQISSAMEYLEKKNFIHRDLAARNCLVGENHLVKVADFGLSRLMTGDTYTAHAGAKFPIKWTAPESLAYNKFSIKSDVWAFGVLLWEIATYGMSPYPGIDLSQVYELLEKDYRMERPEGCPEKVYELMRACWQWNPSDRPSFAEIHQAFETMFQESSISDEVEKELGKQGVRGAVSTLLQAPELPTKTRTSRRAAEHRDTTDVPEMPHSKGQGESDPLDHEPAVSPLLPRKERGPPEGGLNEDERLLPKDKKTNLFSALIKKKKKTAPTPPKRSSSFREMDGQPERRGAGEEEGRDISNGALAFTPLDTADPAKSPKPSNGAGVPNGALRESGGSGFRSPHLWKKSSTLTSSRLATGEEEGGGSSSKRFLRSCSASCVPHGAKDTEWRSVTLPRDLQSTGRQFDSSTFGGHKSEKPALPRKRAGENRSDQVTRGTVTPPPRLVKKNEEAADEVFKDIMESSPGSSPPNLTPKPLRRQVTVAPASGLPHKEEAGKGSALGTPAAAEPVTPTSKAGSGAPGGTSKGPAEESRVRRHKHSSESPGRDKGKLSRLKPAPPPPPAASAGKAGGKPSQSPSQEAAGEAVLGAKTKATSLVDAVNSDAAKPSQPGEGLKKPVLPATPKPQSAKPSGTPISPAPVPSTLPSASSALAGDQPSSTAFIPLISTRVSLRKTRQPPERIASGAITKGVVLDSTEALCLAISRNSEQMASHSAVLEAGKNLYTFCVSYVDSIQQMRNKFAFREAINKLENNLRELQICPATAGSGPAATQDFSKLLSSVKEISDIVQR
The experiment in a line: Homogeneous solution-based Abl kinase assay (Lance). It is filed as biochemical. The following applies: read-out: c-Abl Enzyme IC50.

Data set [3] has as its target T1, Src. Nature of the data set: Src kinase assay, homogeneous solution-based (Lance format). To be noted: read-out: Src enzyme IC50. It is filed as biochemical. Further details: purchased Upstate Biotechnologies, Lake Placid, N.Y.
The mark [4] stands for this setting: read-out: Src enzyme IC50, ELISA format.

Consider 16 molecules from patent US7919625B2, “4-anilino-3-quinolinecarbonitriles for the treatment of chronic myelogenous leukemia (CML)” (Wyeth LLC, priority 2003, dated 2011).

T1 sequence (P12931 whole entry): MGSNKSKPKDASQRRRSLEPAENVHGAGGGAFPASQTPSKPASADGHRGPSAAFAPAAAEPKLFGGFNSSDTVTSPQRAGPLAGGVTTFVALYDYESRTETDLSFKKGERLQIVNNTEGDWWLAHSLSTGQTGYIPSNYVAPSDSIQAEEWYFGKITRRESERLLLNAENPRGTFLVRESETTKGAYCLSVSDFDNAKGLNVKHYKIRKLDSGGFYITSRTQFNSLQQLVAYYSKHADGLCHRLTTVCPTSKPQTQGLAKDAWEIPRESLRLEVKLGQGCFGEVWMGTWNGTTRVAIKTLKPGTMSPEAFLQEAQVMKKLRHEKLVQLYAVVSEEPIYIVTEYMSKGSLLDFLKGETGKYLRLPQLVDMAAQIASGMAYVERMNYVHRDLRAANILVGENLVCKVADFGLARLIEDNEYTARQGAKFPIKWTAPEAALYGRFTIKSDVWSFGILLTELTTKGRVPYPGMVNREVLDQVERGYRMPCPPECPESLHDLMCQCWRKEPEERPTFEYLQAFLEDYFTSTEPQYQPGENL

As for `COc1cc(Nc2c(C#N)cnc3cc(OCCCN4CCN(C)CC4)c(OC)cc23)c(Cl)cc1Cl` [Example 1, 4-[(2,4-Dichloro-5-methoxyphenyl)amino]-6-methoxy-7-[3-(4-methyl-1-piperazinyl)propoxy]-3-quinolinecarbonitrile], the figures for the half-maximal inhibitory concentration (IC50) (with K562 cells; in data set [1]; in the data set with KU812 cells) were 20 nM, 76 nM and 5 nM, respectively. For the same molecule, the “Tumor-free survival (animals lacking detectable tumors / animals per group)” value with K562 xenografts (50 mg/kg p.o. once a day for 5 days, day 11) is listed as 6/8; in the data set on K562 xenografts (50 mg/kg p.o. once a day for 5 days, day 22) it was 5/8; in the data set on K562 xenografts (50 mg/kg p.o. once a day for 5 days, day 36) it was 4/8; with K562 xenografts (50 mg/kg p.o. once a day for 5 days, day 43), 4/8; in the data set with K562 xenografts (75 mg/kg p.o. once a day for 5 days, day 11), 7/8; with K562 xenografts (75 mg/kg p.o. once a day for 5 days, day 22) it was 6/8. The “Tumor-free survival (animals lacking detectable tumors / animals per group)” value in the data set with K562 xenografts (75 mg/kg p.o. once a day for 5 days, day 36) is given as 6/8; in the data set on K562 xenografts (75 mg/kg p.o. once a day for 5 days, day 43) it was 6/8; in the data set on K562 xenografts (100 mg/kg p.o. once a day for 5 days, day 11), 8/8; in the data set on K562 xenografts (100 mg/kg p.o. once a day for 5 days, day 22), 7/8; with K562 xenografts (100 mg/kg p.o. once a day for 5 days, day 36), 7/8; with K562 xenografts (100 mg/kg p.o. once a day for 5 days, day 43), 7/8. The “Tumor-free survival (animals lacking detectable tumors / animals per group)” value was 8/8 with K562 xenografts (150 mg/kg p.o. once a day for 5 days, day 11); 8/8 with K562 xenografts (150 mg/kg p.o. once a day for 5 days, day 22); 8/8 in the data set on K562 xenografts (150 mg/kg p.o. once a day for 5 days, day 36); 8/8 in the data set with K562 xenografts (150 mg/kg p.o. once a day for 5 days, day 43).
Consider `CCN1CCN(CCCOc2cc3ncc(C#N)c(Nc4cc(OC)c(Cl)cc4Cl)c3cc2OC)CC1` [Example 2, 4-[(2,4-Dichloro-5-methoxyphenyl)amino]-7-[3-(4-ethyl-1-piperazinyl)propoxy]-6-methoxy-3-quinolinecarbonitrile], for which the IC50 on Src [2] (setting [4]) is 0.77 nM.
For the molecule `COc1cc(Nc2c(C#N)cnc3cc(OCCN4CCN(C)CC4)c(OC)cc23)c(Cl)cc1Cl` [Example 3, 4-[(2,4-Dichloro-5-methoxyphenyl)amino]-6-methoxy-7-[2-(4-methyl-1-piperazinyl)ethoxy]-3-quinolinecarbonitrile], the melting point is 165 to 167 °C. This molecule also had a half-inhibitory concentration (IC50) in the data set on K562 cells of 48 nM. Also, the midpoint of inhibition in data set [1], the IC50, lay at 440 nM.
`CCN1CCN(CCOc2cc3ncc(C#N)c(Nc4cc(OC)c(Cl)cc4Cl)c3cc2OC)CC1` [Example 4, 4-[(2,4-Dichloro-5-methoxyphenyl)amino]-7-[2-(4-ethyl-1-piperazinyl)ethoxy]-6-methoxy-3-quinolinecarbonitrile]: the melting point is 101 to 105 °C.
With `COc1cc(Nc2c(C#N)cnc3cc(OCC4CCN(C)CC4)c(OC)cc23)c(Cl)cc1Cl` [Example 5, 4-[(2,4-Dichloro-5-methoxyphenyl)amino]-6-methoxy-7-[(1-methylpiperidin-4-yl)methoxy]-3-quinolinecarbonitrile], the IC50 in the data set on K562 cells came out at 39 nM; in data set [1], 617 nM; at c-Abl, 2.9 nM; in the data set on KU812 cells it was 13.4 nM.
For the molecule `COc1cc(Nc2c(C#N)cnc3cc(OCCC4CCN(C)CC4)c(OC)cc23)c(Cl)cc1Cl` [Example 6, 4-[(2,4-Dichloro-5-methoxyphenyl)amino]-6-methoxy-7-[2-(1-methylpiperidin-4-yl)ethoxy]-3-quinolinecarbonitrile], the 50% inhibitory concentration (IC50) with K562 cells was 41 nM; in data set [1], 458 nM; at c-Abl, 2.9 nM; with KU812 cells it was 14 nM.
For `COc1cc(Nc2c(C#N)cnc3cc(OCCCC4CCN(C)CC4)c(OC)cc23)c(Cl)cc1Cl` [Example 7, 4-[(2,4-Dichloro-5-methoxyphenyl)amino]-6-methoxy-7-[3-(1-methylpiperidin-4-yl)propoxy]quinoline-3-carbonitrile], the values for the 50% inhibitory concentration (IC50) (in the data set on K562 cells; in data set [1]; with KU812 cells) were 18 nM, 185 nM and 5.8 nM, respectively.
Consider `CCN1CCC(COc2cc3ncc(C#N)c(Nc4cc(OC)c(Cl)cc4Cl)c3cc2OC)CC1` [Example 8, 4-[(2,4-Dichloro-5-methoxyphenyl)amino]-7-[(1-ethylpiperidin-4-yl)methoxy]-6-methoxyquinoline-3-carbonitrile], for which the melting point was 192 to 195 °C.
`CCOc1cc2c(Nc3cc(OC)c(Cl)cc3Cl)c(C#N)cnc2cc1OCCCN1CCN(C)CC1` [Example 9, 4-[(2,4-Dichloro-5-methoxyphenyl)amino]-6-ethoxy-7-[3-(4-methylpiperazin-1-yl)propoxy]quinoline-3-carbonitrile] displayed a melting point of 137 to 138 °C. Further, the half-inhibitory concentration (IC50) on Src [2] was 1.2 nM.
Molecule `CCOc1cc2c(Nc3cc(OC)c(Cl)cc3Cl)c(C#N)cnc2cc1OCC1CCN(C)CC1` [Example 10, 4-[(2,4-Dichloro-5-methoxyphenyl)amino]-6-ethoxy-7-[(1-methylpiperidin-4-yl)methoxy]quinoline-3-carbonitrile] yielded a melting point of 182 to 186 °C.
On the same count and under the same terms, the figure for `CCOc1cc2c(Nc3cc(OC)c(Cl)cc3Cl)c(C#N)cnc2cc1OCCCN1CCN(CC)CC1` [Example 11, 4-[(2,4-Dichloro-5-methoxyphenyl)amino]-6-ethoxy-7-[3-(4-ethylpiperazin-1-yl)propoxy]quinoline-3-carbonitrile] is 127 to 130 °C; for `CCOc1cc2c(Nc3cc(OC)c(Cl)cc3Cl)c(C#N)cnc2cc1OCCCC1CCN(C)CC1` [Example 12, 4-[(2,4-Dichloro-5-methoxyphenyl)amino]-6-ethoxy-7-[3-(1-methylpiperidin-4-yl)propoxy]quinoline-3-carbonitrile] it is 148 to 151 °C.
On the same count and under the same terms, under `CCOc1cc2c(Nc3cc(OC)c(Cl)cc3Cl)c(C#N)cnc2cc1OCCN1CCN(C)CC1` [Example 13, 4-[(2,4-Dichloro-5-methoxyphenyl)amino]-6-ethoxy-7-[2-(4-methyl-1-piperazinyl)ethoxy]quinoline-3-carbonitrile] stands 141 to 143 °C; under `CCOc1cc2c(Nc3cc(OC)c(Cl)cc3Cl)c(C#N)cnc2cc1OCCC1CCN(C)CC1` [Example 14, 4-[(2,4-Dichloro-5-methoxyphenyl)amino]-6-ethoxy-7-[2-(1-methylpiperidin-4-yl)ethoxy]quinoline-3-carbonitrile], 174 to 176 °C.
As to `CCCN1CCN(CCCOc2cc3ncc(C#N)c(Nc4cc(OC)c(Cl)cc4Cl)c3cc2OC)CC1` [Example 15, 4-[(2,4-Dichloro-5-methoxyphenyl)amino]-6-methoxy-7-[3-(4-propyl-1-piperazinyl)propoxy]-3-quinolinecarbonitrile], the 50% inhibitory concentration (IC50) at Src [2] (setting [4]) stood at 1.1 nM.
In the case of `CCOc1cc(Nc2c(C#N)cnc3cc(OCC4CCN(C)CC4)c(OC)cc23)c(Cl)cc1Cl` [Example 22, 4-[(2,4-dichloro-5-ethoxyphenyl)amino]-6-methoxy-7-[(1-methylpiperidin-4-yl)methoxy]quinoline-3-carbonitrile], the IC50 on Src [3] is 230 nM.

One may read the IC50 as the concentration that gives 50% inhibition. One may read the melting point as the temperature, or range, at which the solid turns liquid.
